Results taken from patent US20230138984A1, “HA-PACLITAXEL CONJUGATE FOR TREATMENT OF MESOTHELIOMA” (FIDIA FARMACEUTICI S.p.A., priority 2020, published 2023).
≈ marks a conversion by molar mass, not a printed value. Where two headings read alike, the source gives them in different places.

Columns and labels:
[1] = system: human mesothelioma H2052 cells; details: for average luminescence of tumor zone: weekly, order of magnitude, compared with untreated 1x10^12 on the 100° day
Text: The cell lines of human mesothelioma H2052 were transduced with a lentiviral vector (method by which the genes can be inserted into cells using the lentivirus) containing a bidirectional promoter allowing the high and coordinated expression of two reporter genes for the synthesis of luciferase and eGFP (enhanced Green Fluorescent Protein), as described in Amendola et al., Nat Biotechnol 2005, 23:108-16: luciferase is an enzyme that catalyzes the oxidation of luciferin which oxidizing emits energy ([…]) in the form of light radiation and such reaction has an ultra-high sensitivity; the eGFP derives from the jellyfish Aequorea victoria, and it is capable of emitting bright green light when exposed to certain wavelengths; both such proteins are used below as a “marker system” for human mesothelioma cells H2052 transduced as above, in order to identify the tumor mass that is formed in animals injected with such cells and to determine its dimensions and the growth over time through suitable bioluminescence sensor.
Cells were incubated for 6 hours in a mixture of complete medium (RPMI + 10% FBS, 1% HEPES, L-glutamine and penicillin/streptomycin) containing the above-mentioned vector and protamine sulphate. At the end of 6 hours of incubation, supernatants were re-integrated with complete medium. After 5 days, the effect of the transduction was evaluated through flow cytometry.
Cells were then expanded and sub-divided in order to isolate the population with the higher expression of reporter genes.
All treated animals were monitored through detection of bioluminescence emitted by their tumor zone treated with HA-paclitaxel conjugate, in order to assess over time, the dimension (and therefore the growth) of the tumor with reference to animals untreated with any chemotherapeutic agent and to those treated with non-conjugated paclitaxel.

H28 cells = experiment: MTT cytotoxicity assay on mesothelioma cell line H28; details: Homo sapiens, NCI-H28, 48 h, read-out: Normalized IC50
H2452 cells = experiment: MTT cytotoxicity assay on mesothelioma cell line H2452; details: Homo sapiens, NCI-H2452, 48 h, read-out: Normalized IC50
H2052 cells = experiment: MTT cytotoxicity assay on mesothelioma cell line H2052; details: Homo sapiens, NCI-H2052, 48 h, read-out: Normalized IC50

**Q.** Which results are given for CC(=O)O[C@H]1C(=O)[C@@]2(C)[C@H]([C@H](OC(=O)c3ccccc3)[C@]3(O)C[C@H](OC(=O)[C@H](O)[C@@H](NC(=O)c4ccccc4)c4ccccc4)C(C)=C1C3(C)C)[C@]1(OC(C)=O)CO[C@@H]1C[C@@H]2O [paclitaxel]?
**A.** average luminescence of tumor zone ([1]; 2° sample: 10 mg/Kg iv for 3 treatments then ip): ~1x10^11 Ph/sec; average luminescence of tumor zone ([1]; 3° sample: 10 mg/Kg ip): ~1x10^11 Ph/sec; bioluminescence emitted by treated tumor zone ([1]; non-conjugated paclitaxel 10 mg/Kg, after 139 days of observation (FIG. 2)): around 12x10^11 Ph/sec; IC50 (H28 cells): 0.787 µg/mL (≈ 0.922 µM); IC50 (H2452 cells): 0.8 µg/mL (≈ 0.937 µM); IC50 (H2052 cells): 0.225 µg/mL (≈ 0.263 µM)
